Experimental data taken from US20240317735A1, “HYDROISOQUINOLINE OR HYDRONAPHTHYRIDINE COMPOUNDS FOR THE TREATMENT OF AUTOIMMUNE DISEASE” (Hoffmann-La Roche Inc., priority 2020, published 2024).

Biological target: T1, human TLR7 (Homo sapiens, UniProt Q9NYK1)
T1 construct: host or cells: HEK293 (HEK-Blue hTLR7)
T1 sequence (Q9NYK1 27-1049): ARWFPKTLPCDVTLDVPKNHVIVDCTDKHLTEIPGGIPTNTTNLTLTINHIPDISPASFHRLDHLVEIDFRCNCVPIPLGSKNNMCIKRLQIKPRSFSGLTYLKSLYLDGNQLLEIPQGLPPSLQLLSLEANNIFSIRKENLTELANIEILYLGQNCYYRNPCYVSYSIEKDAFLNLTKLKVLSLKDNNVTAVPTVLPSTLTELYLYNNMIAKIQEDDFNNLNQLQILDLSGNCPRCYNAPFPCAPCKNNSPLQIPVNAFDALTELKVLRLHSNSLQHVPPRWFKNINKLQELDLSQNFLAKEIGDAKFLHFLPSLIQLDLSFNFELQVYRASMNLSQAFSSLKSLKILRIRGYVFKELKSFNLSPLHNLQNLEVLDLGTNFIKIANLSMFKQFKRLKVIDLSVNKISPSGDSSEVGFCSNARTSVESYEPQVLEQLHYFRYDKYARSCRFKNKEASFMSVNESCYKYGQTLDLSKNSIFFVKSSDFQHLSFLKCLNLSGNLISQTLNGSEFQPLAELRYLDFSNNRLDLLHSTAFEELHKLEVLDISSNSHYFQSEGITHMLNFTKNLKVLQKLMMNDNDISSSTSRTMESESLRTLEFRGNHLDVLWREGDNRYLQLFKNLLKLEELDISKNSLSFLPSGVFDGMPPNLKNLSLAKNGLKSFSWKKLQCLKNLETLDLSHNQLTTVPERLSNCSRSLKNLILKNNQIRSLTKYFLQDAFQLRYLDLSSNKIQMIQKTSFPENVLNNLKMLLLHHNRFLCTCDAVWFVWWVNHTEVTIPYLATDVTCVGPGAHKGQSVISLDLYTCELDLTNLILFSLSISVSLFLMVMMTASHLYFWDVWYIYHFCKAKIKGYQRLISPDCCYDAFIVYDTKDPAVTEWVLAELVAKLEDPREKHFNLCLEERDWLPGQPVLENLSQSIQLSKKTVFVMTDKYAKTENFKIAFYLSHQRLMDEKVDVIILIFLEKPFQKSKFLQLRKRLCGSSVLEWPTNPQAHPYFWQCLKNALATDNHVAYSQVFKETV
Assay: HEK293-Blue-hTLR-7 cells assay (SEAP reporter, R848 stimulation)
Assay type: cell-based
Details: HEK293-Blue-hTLR7 cells, R848, 20 hrs; read-out: HEK/hTLR7 IC50
Procedure: The following tests were carried out in order to determine the activity of the compounds of formula (I) and (Ia) in HEK293-Blue-hTLR-7/8/9 cells assay.
A stable HEK293-Blue-hTLR-7 cell line was purchased from InvivoGen (Cat. #: hkb-htlr7, San Diego, California, USA). These cells were originally designed for studying the stimulation of human TLR7 by monitoring the activation of NF-κB. A SEAP (secreted embryonic alkaline phosphatase) reporter gene was placed under the control of the IFN-β minimal promoter fused to five NF-κB and AP-1-binding sites. The SEAP was induced by activating NF-κB and AP-1 via stimulating HEK-Blue hTLR7 cells with TLR7 ligands. Therefore the reporter expression w % as declined by TLR7 antagonist under the stimulation of a ligand, such as R848 (Resiquimod), for incubation of 20 hrs. The cell culture supernatant SEAP reporter activity was determined using QUANTI-Blue™ kit (Cat. #: rep-qb1, Invivogen, San Diego, Ca, USA) at a wavelength of 640 nm, a detection medium that turns purple or blue in the presence of alkaline phosphatase.
HEK293-Blue-hTLR7 cells were incubated at a density of 250,000˜450,000 cells/mL in a volume of 170 μL in a 96-well plate in Dulbecco's Modified Eagle's medium (DMEM) containing 4.5 g/L glucose, 50 U/mL penicillin, […], […] Normocin, 2 mM L-glutamine, 10% (v/v) heat-inactivated fetal bovine serum with addition of 20 μL test compound in a serial dilution in the presence of final DMSO at 1% and 10 μL of 20 uM R848 in above DMEM, perform incubation under 37° C. in a C02 incubator for 20 hrs. Then 20 μL of the supernatant from each well was incubated with 180 μL Quanti-blue substrate solution at 37° C. for 2 hrs and the absorbance was read at 620˜655 nm using a spectrophotometer. The signaling pathway that TLR7 activation leads to downstream NF-κB activation has been widely accepted, and therefore similar reporter assay was modified for evaluating TLR7 antagonist.

IC50 | Compound
8 nM | C[C@H]1CN(c2ccnc3c2cnn3C)Cc2ccc(N3CC4CNC[C@H]4C3=O)cc21 (relative stereo) [Example 17, cis-5-[(4R)-4-methyl-2-(1-methylpyrazolo[3,4-b]pyridin-4-yl)-3,4-dihydro-1H-isoquinolin-6-yl]-1,2,3,3a,6,6a-hexahydropyrrolo[3,4-c]pyrrol-4-one]
7 nM | C[C@H]1CN(c2ccnc3c2cnn3C)Cc2ccc(N3C[C@@H]4CCNCC4C3=O)cc21 (relative stereo) [Example 55, cis-2-[(4R)-4-methyl-2-(1-methylpyrazolo[3,4-b]pyridin-4-yl)-3,4-dihydro-1H-isoquinolin-6-yl]-3a,4,5,6,7,7a-hexahydro-1H-pyrrolo[3,4-c]pyridin-3-one]
18 nM | C[C@H]1CN(c2ccnc3c2cnn3C)Cc2ccc(N3C[C@@]4(CCNC4)CC3=O)cc21 (single isomer, unassigned) [Example 53]
53 nM | C[C@H]1CN(c2ccnc3c2cnn3C)Cc2ccc(N3C[C@]4(CCNC4)CC3=O)cc21 (single isomer, unassigned) [Example 54]
9 nM | C[C@H]1CN(c2ccnc3c2cnn3C)Cc2ccc(N3C[C@H]4CCNC[C@H]4C3=O)cc21 (single isomer, unassigned) [Example 56]
8 nM | C[C@H]1CN(c2ccnc3c2cnn3C)Cc2ccc(N3C[C@@H]4CCNC[C@@H]4C3=O)cc21 (single isomer, unassigned) [Example 57]
8 nM | Cc1cc(N2Cc3ccc(N4CCC(O)(CN(C)C)CC4)cc3[C@@H](C)C2)c2cnn(C)c2n1 [Example 14, 4-[(dimethylamino)methyl]-1-[(4R)-2-(1,6-dimethylpyrazolo[3,4-b]pyridin-4-yl)-4-methyl-3,4-dihydro-1H-isoquinolin-6-yl]piperidin-4-ol]
4 nM | CC1CN(c2ccc3c(c2)[C@@H](C)CN(c2ccnc4c2cnn4C)C3)CCN1 (stereo partly drawn) [Example 15, (4R)-4-methyl-6-(3-methylpiperazin-1-yl)-2-(1-methylpyrazolo[3,4-b]pyridin-4-yl)-3,4-dihydro-1H-isoquinoline]
5 nM | C[C@H]1CN(c2ccnc3c2cnn3C)Cc2ccc(N3CC4(CCNCC4)CC3=O)cc21 [Example 16, 2-[(4R)-4-methyl-2-(1-methylpyrazolo[3,4-b]pyridin-4-yl)-3,4-dihydro-1H-isoquinolin-6-yl]-2,8-diazaspiro[4.5]decan-3-one]

Second part, the compound before the results:

Compound | IC50
C[C@H]1CN(c2ccnc3c2cnn3C)Cc2ccc(N3CCNCC3)cc21 [Example 1, (4R)-4-methyl-2-(1-methylpyrazolo[3,4-b]pyridin-4-yl)-6-piperazin-1-yl-3,4-dihydro-1H-isoquinoline] | 3 nM
Cc1cc(N2Cc3ccc(N4CCNCC4)cc3[C@@H](C)C2)c2cnn(C)c2n1 [Example 2, (4R)-2-(1,6-dimethylpyrazolo[3,4-b]pyridin-4-yl)-4-methyl-6-piperazin-1-yl-3,4-dihydro-1H-isoquinoline] | 8 nM
Cn1ncc2c(N3CCc4cc(N5CCNCC5)ccc4C3)ccnc21 [Example 3, 2-(1-methylpyrazolo[3,4-b]pyridin-4-yl)-6-piperazin-1-yl-3,4-dihydro-1H-isoquinoline] | 19 nM
CC1CN(c2ccnc3c2cnn3C)Cc2ccc(N3CCC4(CCNCC4)CC3)cc21 (stereo not drawn) [Example 4, 3-[4-methyl-2-(1-methylpyrazolo[3,4-b]pyridin-4-yl)-3,4-dihydro-1H-isoquinolin-6-yl]-3,9-diazaspiro[5.5]undecane] | 4 nM
Cc1cc(N2Cc3ccc(N4CCC5(CCNCC5)CC4)cc3C(C)C2)c2cnn(C)c2n1 (stereo not drawn) [Example 5, 3-[2-(1,6-dimethylpyrazolo[3,4-b]pyridin-4-yl)-4-methyl-3,4-dihydro-1H-isoquinolin-6-yl]-3,9-diazaspiro[5.5]undecane] | 3 nM
Cn1ncc2c(N3Cc4ccc(N5CCC6(CCNCC6)CC5)cc4C(C)(C)C3)ccnc21 [Example 6, 3-[4,4-dimethyl-2-(1-methylpyrazolo[3,4-b]pyridin-4-yl)-1,3-dihydroisoquinolin-6-yl]-3,9-diazaspiro[5.5]undecane] | 26 nM
C[C@H]1CN(c2ccnc3c2cnn3C)Cc2ccc(N3CCN(C(=O)C4CCNCC4)CC3)cc21 [Example 7, 4-piperidyl-[4-[(4R)-4-methyl-2-(1-methylpyrazolo[3,4-b]pyridin-4-yl)-3,4-dihydro-1H-isoquinolin-6-yl]piperazin-1-yl]methanone] | 18 nM
C[C@H]1CN(c2ccnc3c2cnn3C)Cc2ccc(N3CCN(C(=O)C4CCCN4)CC3)cc21 (stereo partly drawn) [Example 8, pyrrolidin-2-yl-[4-[(4R)-4-methyl-2-(1-methylpyrazolo[3,4-b]pyridin-4-yl)-3,4-dihydro-1H-isoquinolin-6-yl]piperazin-1-yl]methanone] | 6 nM
C[C@H]1CN(c2ccnc3c2cnn3C)Cc2ccc(N3CCN(c4cc5c(cn4)CCNC5)CC3)cc21 [Example 9, 7-[4-[(4R)-4-methyl-2-(1-methylpyrazolo[3,4-b]pyridin-4-yl)-3,4-dihydro-1H-isoquinolin-6-yl]piperazin-1-yl]-1,2,3,4-tetrahydro-2,6-naphthyridine] | 7 nM
C[C@H]1CN(c2ccnc3c2cnn3C)Cc2ccc(N3CCC(N4CCNCC4)CC3)cc21 [Example 10, (4R)-4-methyl-2-(1-methylpyrazolo[3,4-b]pyridin-4-yl)-6-(4-piperazin-1-yl-1-piperidyl)-3,4-dihydro-1H-isoquinoline] | 1 nM
CO[C@@H]1CN(C2CCN(c3ccc4c(c3)[C@@H](C)CN(c3ccnc5c3cnn5C)C4)CC2)C[C@H]1N [Example 11, (3R,4R)-4-methoxy-1-[1-[(4R)-4-methyl-2-(1-methylpyrazolo[3,4-b]pyridin-4-yl)-3,4-dihydro-1H-isoquinolin-6-yl]-4-piperidyl]pyrrolidin-3-amine] | 2 nM
C[C@H]1CN(c2ccnc3c2cnn3C)Cc2ccc(N3CCN(C(=O)C4CNCCO4)CC3)cc21 (stereo partly drawn) [Example 12, morpholin-2-yl-[4-[(4R)-4-methyl-2-(1-methylpyrazolo[3,4-b]pyridin-4-yl)-3,4-dihydro-1H-isoquinolin-6-yl]piperazin-1-yl]methanone] | 9 nM
C[C@H]1CN(c2ccnc3c2cnn3C)Cc2ccc(N3CCC(O)(CN(C)C)CC3)cc21 [Example 13, 4-[(dimethylamino)methyl]-1-[(4R)-4-methyl-2-(1-methylpyrazolo[3,4-b]pyridin-4-yl)-3,4-dihydro-1H-isoquinolin-6-yl]piperidin-4-ol] | 7 nM
C[C@H]1CN(c2ccnc3c2cnn3C)Cc2ccc(OC[C@H]3CNCCN3)cc21 [Example 18, (4R)-4-methyl-2-(1-methylpyrazolo[3,4-b]pyridin-4-yl)-6-[[(2R)-piperazin-2-yl]methoxy]-3,4-dihydro-1H-isoquinoline] | 8 nM
C[C@H]1CN(c2ccnc3c2cnn3C)Cc2ccc(OC[C@@H]3CNCCN3)cc21 [Example 19, (4R)-4-methyl-2-(1-methylpyrazolo[3,4-b]pyridin-4-yl)-6-[[(2S)-piperazin-2-yl]methoxy]-3,4-dihydro-1H-isoquinoline] | 8 nM
